Columns and labels:
[1] = tested on: SJSA-1; assay: Antitumor activity against human SJSA1 cells xenografted in mouse assessed as tumor regression at 200 mg/kg, qd; type: functional
[2] = Oral bioavailability in rat; type: ADME, organism-based; conditions: in vivo
[3] = Oral bioavailability in mouse; type: ADME, organism-based; conditions: in vivo

Question: With `CC[C@@H]([C@H](C)O)N1C(=O)[C@@](C)(CC(=O)O)C[C@H](c2cccc(Cl)c2)[C@H]1c1ccc(Cl)cc1` as the molecule, how does the Activity [1] read?
Answer: Its Activity is 27%.

Question: What about the bioavailability [2] of the same molecule?
Answer: The bioavailability was 100%.

Question: And the bioavailability [3]?
Answer: Its bioavailability is 12%.
